This data set is described as follows: Photodegradation of riboflavin preparations under UV irradiation (254/365 nm), first order kinetics. Type of data set: physicochemical. The conditions noted are these: for half-life: aqueous solution of free riboflavin under UV irradiation. Here is the method:
At time intervals a known amount of the solution or suspension was diluted with double distilled water and the absorbance or fluorescence measured.
In the case of the liposome suspensions liposomal pellets were produced, solubilised with a 10% solution of Triton-X-100 (RTM) and then diluted and measured. The entrapment and degradation of riboflavin was calculated from the absorbance readings at 444 nm, absorbance at this wavelength not interfering with the absorbance of Triton-X-100.
The photodegradation of riboflavin caused by UV irradiation follows first order kinetics and is given by the following equation: […]
where C0 is the initial concentration of riboflavin, C is the concentration of riboflavin after t min of irradiation and k is the first order photodegradation rate constant.
The graphic representation of Equation (2) is linear and the slope of the line gives the photodegradation rate constant k.
The increase in stability was expressed by the stabilization ratio. (k0/k), where k0 is the photodegradation constant of free riboflavin in aqueous solution and k the photodegradation rate constant of the various preparations.
Riboflavin gamma-cyclodextrin inclusion complexes were entrapped in DRV incorporating a light absorbing agent or antioxidant in their lipid phase selected from: oil Red 0, oxybenzone, deoxybenzone and beta-carotene or combinations thereof. […] As in the previous examples this degradation followed first order kinetics represented by the equations given earlier.
In order to determine the extent of this reduction and to determine whether during the photodegradation of riboflavin the same concentration of oil Red 0 caused different reductions in fluorescence, solutions containing known amounts of riboflavin and oil Red 0 solubilised in water using Triton-X-100 were prepared and their fluorescence measured.

SMILES strings stand for the structures. Like-named read-outs stand apart in the source and are kept apart here.

With `Cc1cc2nc3c(=O)[nH]c(=O)nc-3n(C[C@H](O)[C@H](O)[C@H](O)CO)c2cc1C` [Riboflavin, riboflavin], the half-life was roughly 30 min (aqueous solution, irradiation, read-out: half life of riboflavin in aqueous solution on irradiation) and 30 min (free riboflavin, UV irradiation, read-out: half life of riboflavin). For the same compound, under “aqueous solution, irradiation”, the “rate of decomposition of riboflavin in aqueous solution on irradiation” value was determined as 0.024 min⁻¹. The “k × 10^3, rate constant for the photodegradation of riboflavin” value (values are k × 10^3, UV lamp 254/365 nm, 3 cm, 24° C.) is 24(k °) min^−1.

As a reminder, the half-life is how long it takes for the measured level to halve.

Values taken from patent US6379697B1, “Stabilization of photosensitive materials” (The Secretary of State for Defence in Her Britannic …, priority 1994, dated 2002).
